Data taken from US20130317029A1 (PORTOLA PHARMACEUTICALS, INC., priority 2010, published 2013).

Target: T1, full length active recombinant SYK enzyme (Homo sapiens, UniProt P43405)
T1 construct: full length active recombinant SYK enzyme (Millipore, Calif.); purchased Millipore
Assay: Inhibition of Syk tyrosine phosphorylation activity (LANCE TR-FRET kinase assay)
Assay type: biochemical
From the text: This example illustrates methods for evaluating the compounds of the invention, along with results obtained for such assays. The in vitro and in vivo human Syk activities of the inventive compounds can be determined by various procedures known in the art, such as a test for their ability to inhibit the activity of human plasma Syk. […] The IC50 value is the concentration (in nM) of the compound required to provide 50% inhibition of human Syk proteolytic activity.
Potency of candidate molecules for inhibiting Syk tyrosine phosphorylation activity is assessed by measuring the ability of a test compound to inhibit Syk-mediated tyrosine phosphorylation of a Syk-specific substrate.
SYK tyrosine phosphorylation activity is measured using the LANCE™ Technology developed by Perkin Elmer Life and Analytical Sciences (Boston, Mass.). LANCE™ refers to homogeneous time resolved fluorometry applications using techniques such as time-resolved fluorescence resonance energy transfer assay (TR-FRET) (see generally for procedures in Perkin Elmer Application Note—How to Optimize a Tyrosine Kinase Assay Using Time Resolved Fluorescence-Based LANCE Detection, wwww.perkinelmer.com/lifesciences). The assay principle involves detection of a phosphorylated substrate using energy transfer from a phosphospecific europium-labeled antibody to streptavidin-allophycocyanin as an acceptor.
To test the ability of candidate molecules to inhibit SYK tyrosine phosphorylation activity, molecules are reconstituted in 30% DMSO and serially diluted 1:3 with the final dilution containing DMSO in the absence of the candidate molecule. The final DMSO concentration in the assay is 3%. Kinase assays are performed as a two part reaction. The first reaction is a kinase reaction and which comprises of a candidate molecule, full length active recombinant SYK enzyme (Millipore, Calif.) and biotin-labeled SYK-specific substrate biotin-[…]-OH. The second reaction involves termination of the kinase reaction and the simultaneous addition of the detection reagents-europium-labeled anti-phosphotyrosine reagent (Eu-W1024-PY100, Perkin Elmer, Boston, Mass.) and Streptavidin-Allophycocyanin detection reagent (SA-APC, Prozyme, Calif.). The kinase reaction is performed in a black U-bottom 96-well microtitre plate. The final reaction volume is 50 μL and contains a final concentration of 1 nM active SYK enzyme, 550 nM SYK-substrate, and 100 μM ATP diluted in a buffer containing 50 mM Tris pH 7.5, 5 mM MgCl2, and 1 mM DTT. The reaction is allowed to proceed for 1 hour at room temperature. The quench buffer contains 100 mM Tris pH 7.5, 300 mM NaCl2, 20 mM EDTA, 0.02% Brij35, and 0.5% BSA. The detection reagents are added to the reaction mixture at the following dilutions-1:500 for Eu-W1024-PY100 and 1:250 for SA-APC. The kinase reaction is terminated by the addition of 50 μL quench buffer containing the detection reagents. The detection is allowed to proceed for 1 hr at room temperature. Detection of the phosphorlated substrate in the absence and presence of inhibitors is measured in the TR-FRET instrument, Analyst HT (Molecular Probes, Sunnyvale, Calif.) and the condition for measurements are set up using CriterionHost Release 2.0 (Molecular Probes, Sunnyvale, Calif.). The settings used are a follows: excitation 360 nm, emission 665-7.5 nm, beam splitter 350 nm 50/50, flash 100 pulses, delay 60 us, integration 400 us, z-height 2 mm. Inhibition of SYK-tyrosine kinase activity is calculated as the maximum response observed in the presence of inhibitor, compared to that in the absence of inhibitor. IC50s were derived by non-linear regression analysis.

Compound	IC50 [nM]
Cc1cc(C)cc(Nc2nc(N[C@@H](C(N)=O)C(C)C)[nH]c(=O)c2C(N)=O)c1 [Example 2, (R)-2-(1-amino-3-methyl-1-oxobutan-2-ylamino)-4-(3,5-dimethylphenylamino)-6-oxo-1,6-dihydropyrimidine-5-carboxamide]	1 to 10
CC[C@@H](Nc1nc(Nc2ccc3cn[nH]c3c2)c(C(N)=O)c(=O)[nH]1)C(N)=O [Example 36]	< 1
CC(C)[C@@H](Nc1nc(Nc2cccc(-n3nccn3)c2)c(C(N)=O)c(=O)[nH]1)C(N)=O [Example 6, (R)-4-(3-(2H-1,2,3-triazol-2-yl)phenylamino)-2-(1-amino-3-methyl-1-oxobutan-2-ylamino)-6-oxo-1,6-dihydropyrimidine-5-carboxamide]	1 to 10
NC(=O)c1c(Nc2cccc(-n3nccn3)c2)nc(N[C@@H]2CCCC[C@@H]2N)[nH]c1=O [Example 5]	1 to 10
CC(=O)N1CCN(c2ccc(Nc3nc(NC4CC4)c(C(N)=O)c(=O)[nH]3)cc2)CC1 [Example 62, 2-(4-(4-acetylpiperazin-1-yl)phenylamino)-4-(cyclopropylamino)-6-oxo-1,6-dihydropyrimidine-5-carboxamide]	> 1000
CCOc1nc(N[C@@H](C(N)=O)C(C)C)nc(Nc2cc(C)cc(C)c2)c1C(N)=O [Example 4, (R)-2-(1-amino-3-methyl-1-oxobutan-2-ylamino)-4-(3,5-dimethylphenylamino)-6-ethoxypyrimidine-5-carboxamide]	100 to 1000
CC(C)C[C@@H](Nc1nc(Nc2cccc(-n3nccn3)c2)c(C(N)=O)c(=O)[nH]1)C(N)=O [Example 7, (R)-4-(3-(2H-1,2,3-triazol-2-yl)phenylamino)-2-(1-amino-4-methyl-1-oxopentan-2-ylamino)-6-oxo-1,6-dihydropyrimidine-5-carboxamide]	10 to 100
Cc1cc(C)cc(Nc2nc(N[C@@H](CN)C(C)C)[nH]c(=O)c2C(N)=O)c1 [Example 12, (R)-2-(1-amino-3-methylbutan-2-ylamino)-4-(3,5-dimethylphenylamino)-6-oxo-1,6-dihydropyrimidine-5-carboxamide]	1 to 10
Cc1cc(C)cc(Nc2nc(NC3CCCCC3N)[nH]c(=O)c2C(N)=O)c1 (stereo not shown) [Example 57, 2-(2-aminocyclohexylamino)-4-(3,5-dimethylphenylamino)-6-oxo-1,6-dihydropyrimidine-5-carboxamide]	100 to 1000
CC[C@@H](Nc1nc(Nc2ccc3ncccc3c2)c(C(N)=O)c(=O)[nH]1)C(N)=O [Example 21, (R)-2-(1-amino-1-oxobutan-2-ylamino)-6-oxo-4-(quinolin-6-ylamino)-1,6-dihydropyrimidine-5-carboxamide]	< 1
Cc1cc(C)cc(Nc2nc(N[C@H](CC(C)C)C(N)=O)[nH]c(=O)c2C(N)=O)c1 [Example 55, (R)-2-(1-amino-4-methyl-1-oxopentan-2-ylamino)-4-(3,5-dimethylphenylamino)-6-oxo-1,6-dihydropyrimidine-5-carboxamide]	> 1000
CC(=O)N1CCN(c2ccc(Nc3nc(O)c(C(N)=O)c(Nc4cccc(C)c4)n3)cc2)CC1 [Example 64, 4-(m-toluidino)-2-(4-(4-acetylpiperazin-1-yl)phenylamino)-6-hydroxypyrimidine-5-carboxamide]	> 1000
CC(C)C[C@@H](Nc1nc(Nc2ccc3[nH]ncc3c2)c(C(N)=O)c(=O)[nH]1)C(N)=O [Example 25, (R)-4-(1H-indazol-5-ylamino)-2-(1-amino-4-methyl-1-oxopentan-2-ylamino)-6-oxo-1,6-dihydropyrimidine-5-carboxamide]	< 1

Continued, values first:

IC50 [nM]	Compound
1 to 10	CC(C)C[C@@H](Nc1nc(Nc2cccc(-c3cccnc3)c2)c(C(N)=O)c(=O)[nH]1)C(N)=O [Example 97, (R)-2-(1-amino-4-methyl-1-oxopentan-2-ylamino)-6-oxo-4-(3-(pyridin-3-yl)phenylamino)-1,6-dihydropyrimidine-5-carboxamide]
1 to 10	CC[C@@H](Nc1nc(Nc2ccc(OC(F)(F)F)cc2)c(C(N)=O)c(=O)[nH]1)C(N)=O [Example 92, (R)-2-(1-amino-1-oxobutan-2-ylamino)-4-(4-(trifluoromethoxy)phenylamino)-6-oxo-1,6-dihydropyrimidine-5-carboxamide]
1 to 10	CC(C)C[C@@H](Nc1nc(Nc2cccc(OC(F)F)c2)c(C(N)=O)c(=O)[nH]1)C(N)=O [Example 87, (R)-2-(1-amino-4-methyl-1-oxopentan-2-ylamino)-4-(3-(difluoromethoxy)phenylamino)-6-oxo-1,6-dihydropyrimidine-5-carboxamide]
1 to 10	COc1cccc(Nc2nc(N[C@H](CC(C)C)C(N)=O)[nH]c(=O)c2C(N)=O)c1 [Example 77, (R)-2-(1-amino-4-methyl-1-oxopentan-2-ylamino)-4-(3-methoxyphenylamino)-6-oxo-1,6-dihydropyrimidine-5-carboxamide]
> 1000	COc1nc(Nc2ccc(N3CCN(C(C)=O)CC3)cc2)nc(NC2CC2)c1C(N)=O [Example 69, 2-(4-(4-acetylpiperazin-1-yl)phenylamino)-4-(cyclopropylamino)-6-methoxypyrimidine-5-carboxamide]
1 to 10	CC[C@@H](Nc1nc(Nc2ccc3c(c2)OCO3)c(C(N)=O)c(=O)[nH]1)C(N)=O [Example 76, (R)-2-(1-amino-1-oxobutan-2-ylamino)-4-(benzo[d][1,3]dioxol-5-ylamino)-6-oxo-1,6-dihydropyrimidine-5-carboxamide]
1 to 10	CC(C)C[C@@H](Nc1nc(Nc2cccc(-c3ccncc3)c2)c(C(N)=O)c(=O)[nH]1)C(N)=O [Example 112, (R)-2-(1-amino-4-methyl-1-oxopentan-2-ylamino)-6-oxo-4-(3-(pyridin-4-yl)phenylamino)-1,6-dihydropyrimidine-5-carboxamide]
1 to 10	CC[C@@H](Nc1nc(Nc2cccc(OC(F)F)c2)c(C(N)=O)c(=O)[nH]1)C(N)=O [Example 88, (R)-2-(1-amino-1-oxobutan-2-ylamino)-4-(3-(difluoromethoxy)phenylamino)-6-oxo-1,6-dihydropyrimidine-5-carboxamide]
< 1	COc1ccc(Nc2nc(N[C@H](CC(C)C)C(N)=O)[nH]c(=O)c2C(N)=O)cc1OC [Example 83, (R)-2-(1-amino-4-methyl-1-oxopentan-2-ylamino)-4-(3,4-dimethoxyphenylamino)-6-oxo-1,6-dihydropyrimidine-5-carboxamide]
1 to 10	CC[C@@H](Nc1nc(Nc2cccc(OCCOC)c2)c(C(N)=O)c(=O)[nH]1)C(N)=O [Example 99, (R)-2-(1-amino-1-oxobutan-2-ylamino)-4-(3-(2-methoxyethoxy)phenylamino)-6-oxo-1,6-dihydropyrimidine-5-carboxamide]
100 to 1000	COc1nc(N[C@@H](C(N)=O)c2ccccc2)nc(Nc2cccc(C)c2)c1C(N)=O [Example 71, (R)-4-(m-toluidino)-2-(2-amino-2-oxo-1-phenylethylamino)-6-methoxypyrimidine-5-carboxamide]
1 to 10	CC(C)C[C@@H](Nc1nc(Nc2cnn(C)c2)c(C(N)=O)c(=O)[nH]1)C(N)=O [Example 114, (R)-2-(1-amino-4-methyl-1-oxopentan-2-ylamino)-4-(1-methyl-1H-pyrazol-4-ylamino)-6-oxo-1,6-dihydropyrimidine-5-carboxamide]
